Test results from article PMC11401861, “Assessment of the in vitro anti-diabetic activity with molecular dynamic simulations of limonoids isolated from Adalia lemon peels” (Scientific Reports, 2024).
≈ marks a conversion by molar mass, not a printed value.

Tests used:
[1] = Total antioxidant capacity (TAC), method of Prieto et al.
Method: (§1) All in vitro biological activities of the limonoids-rich extract and the isolated compounds were assayed in triplicate at three different concentrations (50, 100, and 200 µg/mL).
The method proposed by Prieto et al.[30] was used to determine the total antioxidant capacity (TAC) expressed as mg […] equivalent per gram weight, using ascorbic acid at the same concentrations as a standard.

[2] = target: α-amylase; experiment: α-Amylase enzyme inhibition assay; format: biochemical
Method: as §1
(§2) The IC50 of each tested sample was determined by plotting a curve using a series of sample concentrations against the percent of enzyme inhibition.

[3] = Iron reducing power (IRP), method of Oyaizu
[4] = target: α-glucosidase; experiment: α-Glucosidase enzyme inhibition assay; format: biochemical
Method: as §1, §2

[5] = DPPH radical scavenging activity
Method: as §1
The 1,1-Diphenyl-2-picryl-hydrazyl (DPPH) radical scavenging activity was evaluated using the method described by Rahman et al.[32]. Ascorbic acid was used as a positive control at the same concentrations. The inhibition percentage of the DPPH free radical was calculated. The median inhibitory concentration (IC50) of each tested sample was determined by plotting a curve using a series of sample concentrations against the percentage of DPPH inhibition.

[6] = test system: α-amylase; experiment: Native electrophoretic α-amylase isoenzyme pattern (PAGE); format: biochemical; conditions: standard enzyme treated with 100 µg/mL
Method: (§3) The relative mobility (Rf), band quantity (Qty) and band percent (B%) of the electrophoretically detected isoenzyme types on the PAGE plate were determined using the Quantity One software program (version 4.6.2). The equation proposed by Nei and Li[39] was used to calculate the percentages of similarity index (SI%) and physiological difference (Diff%).

[7] = ABTS radical scavenging assay
Method: as §1
(§4) The ABTS scavenging capacities of the samples were compared with that of ascorbic acid. The percent inhibition of the ABTS radical was calculated. The IC50 of each tested sample was determined by plotting a curve using a series of sample concentrations against the percent of ABTS inhibition.

[8] = test system: α-glucosidase; experiment: SDS-PAGE electrophoretic α-glucosidase pattern; format: biochemical; conditions: 100 µg/mL
Method: as §3

[9] = Nitric oxide (NO) radical scavenging activity (Griess Illosvory reagent)
Method: as §1
as §4, with “The nitric oxide (NO) radical scavenging activity was estimated by the reaction with Griess Illosvory reagent based on the method proposed by Chakraborthy[34]. The NO” for “The ABTS”, “the NO” for “the ABTS”, “of NO” for “of ABTS”

CC1(C)OC(=O)C[C@H](O)[C@]2(C)[C@H]3CC[C@@]4(C)[C@H](c5ccoc5)OC(=O)[C@H]5O[C@]54[C@]3(C)C(=O)C[C@@H]12 [Cpd2, deacetylnomilin]
TAC ([1]; sample concentration 50 µg/mL): 21.74 ± 0.06 mg gallic acid/g
TAC ([1]; sample concentration 100 µg/mL): 38.70 ± 0.10 mg gallic acid/g
TAC ([1]; sample concentration 200 µg/mL): 68.88 ± 0.19 mg gallic acid/g
IC50 against α-amylase ([2]; Fig. 2b): 5.07 ± 0.03 µg/mL (≈ 10.7 µM)
α-Amylase Inhibition (%) ([2]; sample concentration 50 µg/mL): 13.49 ± 0.06%
α-Amylase Inhibition (%) ([2]; sample concentration 100 µg/mL): 24.01 ± 0.10%
α-Amylase Inhibition (%) ([2]; sample concentration 200 µg/mL): 42.74 ± 0.19%
IRP ([3]; sample concentration 50 µg/mL): 16.59 ± 0.06 µg/mL
IRP ([3]; sample concentration 100 µg/mL): 29.53 ± 0.10 µg/mL
IRP ([3]; sample concentration 200 µg/mL): 52.56 ± 0.19 µg/mL
IC50 against α-glucosidase ([4]; Fig. 2b): 3.89 ± 0.03 µg/mL (≈ 8.23 µM)
α-Glucosidase Inhibition (%) ([4]; sample concentration 50 µg/mL): 9.34 ± 0.06%
α-Glucosidase Inhibition (%) ([4]; sample concentration 100 µg/mL): 16.63 ± 0.10%
α-Glucosidase Inhibition (%) ([4]; sample concentration 200 µg/mL): 29.59 ± 0.19%
IC50 against DPPH radical ([5]; Fig. 2a): 6.40 ± 0.02 µg/mL (≈ 13.5 µM)
DPPH Inhibition (%) ([5]; sample concentration 50 µg/mL): 18.90 ± 0.05%
DPPH Inhibition (%) ([5]; sample concentration 100 µg/mL): 33.65 ± 0.09%
DPPH Inhibition (%) ([5]; sample concentration 200 µg/mL): 59.90 ± 0.16%
Change in electrophoretic α-amylase isoenzyme pattern [6]: slight changes
Diff% (physiological difference) of electrophoretic α-amylase pattern from the standard enzyme [6]: 33.33%
SI% (similarity index) of electrophoretic α-amylase pattern to the standard enzyme [6]: 66.67%
IC50 against ABTS radical ([7]; Fig. 2a): 6.02 ± 0.03 µg/mL (≈ 12.7 µM)
ABTS Inhibition (%) ([7]; sample concentration 50 µg/mL): 16.59 ± 0.06%
ABTS Inhibition (%) ([7]; sample concentration 100 µg/mL): 29.53 ± 0.10%
ABTS Inhibition (%) ([7]; sample concentration 200 µg/mL): 52.56 ± 0.19%
Diff% (decrease in the quantity of the identified α-glucosidase band) [8]: 40.64%
Qty (band quantity) of the α-glucosidase band [8]: 11.08
IC50 against NO radical ([9]; Fig. 2a): 7.65 ± 0.04 µg/mL (≈ 16.2 µM)
NO Inhibition (%) ([9]; sample concentration 50 µg/mL): 13.75 ± 0.05%
NO Inhibition (%) ([9]; sample concentration 100 µg/mL): 24.48 ± 0.09%
NO Inhibition (%) ([9]; sample concentration 200 µg/mL): 43.58 ± 0.16%
melting point: 254 °C
